Measurements taken from patent publication US20260285816A1, “Piperazinyl-Modified Quinazolinyl-Aryl Urea Derivative, And Preparation Method And Use Thereof” (Guangxi Normal University, priority 2025, published 2026).
Like-named read-outs stand apart in the source and are kept apart here.

What was measured:
Format in all cases: cell-based, human
143B cells = assay: CCK-8 anti-proliferative assay, 143B; details: Homo sapiens, 143B; Table 11; co-incubated 48 h; read-out: Anti-proliferative activity (IC50 ± standard deviation) 143B
Outline: (§1)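 Cells seeded at 5,000/well were grown at 37° C. under 5% CO2 to 70% confluency, then exposed in triplicate to 1–30 μM compound (1, 2, 4, 6, 8, 12, 16, 24, 30 μM) for designated durations. CCK-8 was added for 1–4 h, OD read at 450 nm, and IC50 derived from inhibition versus control.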

T24 cells = assay: CCK-8 anti-proliferative assay, T24; details: Homo sapiens, T-24; Table 10; co-incubated 48 h; read-out: Anti-proliferative activity (IC50 ± standard deviation) T24
Outline: as §1

[1] = system: embryonic lung fibroblasts (WI-38); assay: CCK-8 anti-proliferative assay, normal cells WI-38; details: Homo sapiens, WI-38, Table 13, co-incubated 48 h, read-out: Anti-proliferative activity (IC50 ± standard deviation) WI-38
Outline: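 Compound was added at final concentrations of 1 to 30 μM, in triplicate, to cells at 70% confluence (5,000 per well seeded). After co-incubation, CCK-8 was added for 1–4 h depending on the cell line. Inhibition from OD450 relative to untreated cells gave IC50.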

[2] = system: immortalized ureteral epithelial cells (SV-HUC-1); assay: CCK-8 anti-proliferative assay, normal cells SV-HUC-1; details: Homo sapiens, SV-HUC1; Table 13; normal cells; co-incubated 48 h; read-out: Anti-proliferative activity (IC50 ± standard deviation) SV-HUC-1
Outline: (§2)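 Cells seeded at 5,000/well, grown at 37° C, 5% CO2 to 70% confluence, then treated in triplicate with 1-30 μM compound (nine concentrations) for designated times.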

5637 cells = assay: CCK-8 anti-proliferative assay, 5637; details: Homo sapiens; Table 10; co-incubated 48 h; read-out: Anti-proliferative activity (IC50 ± standard deviation) 5637
Outline: as §2

MG-63 cells = assay: CCK-8 anti-proliferative assay, MG-63; details: Homo sapiens, MG-63; Table 11; co-incubated 48 h; read-out: Anti-proliferative activity (IC50 ± standard deviation) MG-63
Outline: as §1

UM-UC-3 cells = assay: CCK-8 anti-proliferative assay, UM-UC-3; details: Homo sapiens, UMUC3; Table 10; co-incubated 48 h; read-out: Anti-proliferative activity (IC50 ± standard deviation) UM-UC-3
Outline: as §2

PANC-1 cells = assay: CCK-8 anti-proliferative assay, PANC-1; details: for IC50: Homo sapiens, PANC-1, Table 11, co-incubated 48 h, read-out: Anti-proliferative activity (IC50 ± standard deviation) PANC-1
Outline: as §1

BxPC-3 cells = assay: CCK-8 anti-proliferative assay, BxPC-3; details: for IC50: Homo sapiens, BXPC-3, Table 11, co-incubated 48 h, read-out: Anti-proliferative activity (IC50 ± standard deviation) BxPC-3
Outline: as §1

J82 cells = assay: CCK-8 anti-proliferative assay, J82; details: Homo sapiens, J82; Table 10; co-incubated 48 h; read-out: Anti-proliferative activity (IC50 ± standard deviation) J82
Outline: as §2

SK-OV-3 cells = assay: CCK-8 anti-proliferative assay, SK-OV-3; details: Homo sapiens, SK-OV-3; Table 12; co-incubated 48 h; read-out: Anti-proliferative activity (IC50 ± standard deviation) SK-OV-3
Outline: as §2

A549 cells = assay: CCK-8 anti-proliferative assay, A549; details: Homo sapiens, A549; Table 13; co-incubated 48 h; read-out: Anti-proliferative activity (IC50 ± standard deviation) A549
Outline: as §2

Hep G2 cells = assay: CCK-8 anti-proliferative assay, Hep G2; details: for IC50: Homo sapiens, HepG2
Outline: as §1

MCF-7 cells = assay: CCK-8 anti-proliferative assay, MCF-7; details: Homo sapiens, MCF7; Table 12; co-incubated 48 h; read-out: Anti-proliferative activity (IC50 ± standard deviation) MCF-7
Outline: as §2

HeLa cells = assay: CCK-8 anti-proliferative assay, HeLa; details: Homo sapiens, HeLa; Table 12; co-incubated 48 h; read-out: Anti-proliferative activity (IC50 ± standard deviation) HeLa
Outline: as §2

[3] = Table 12, co-incubated 48 h, read-out: Anti-proliferative activity (IC50 ± standard deviation) Hep G2

SMILES	IC50 (143B cells) [µM]	IC50 (T24 cells) [µM]	IC50 [1] [µM]	IC50 [2] [µM]	IC50 (5637 cells) [µM]	IC50 (MG-63 cells) [µM]	IC50 (UM-UC-3 cells) [µM]	IC50 (PANC-1 cells) [µM]	IC50 (BxPC-3 cells) [µM]	IC50 (J82 cells) [µM]	IC50 (SK-OV-3 cells) [µM]	IC50 (A549 cells) [µM]	IC50 (Hep G2 cells; [3]) [µM]	IC50 (MCF-7 cells) [µM]	IC50 (HeLa cells) [µM]	Sensitivity of PANC-1, in words (PANC-1 cells)	Sensitivity of BxPC-3 / anti-proliferative activity against BxPC-3, in words (BxPC-3 cells)	Anti-proliferative activity against Hep G2 versus comparative series, in words (Hep G2 cells)	IC50 (Hep G2 cells; read-out: IC50 on Hep G2) [µM]
COc1cc2ncnc(NCc3cccc(NC(=O)Nc4ccc(Cl)cc4Cl)c3)c2cc1OCCCCCCN1CCC(CN2CCN(c3ccccn3)CC2)CC1 [Compound 8-2r, N-(3-(((7-methoxy-6-((6-(4-((4-(pyridin-2-yl)piperazin-1-yl)methyl)piperidin-1-yl)hexyl)oxy)quinazolin-4-yl)amino)methyl)phenyl)-N′-(2,4-dichlorophenyl)urea]	8.91 ± 0.77	5.12 ± 0.39	7.72 ± 0.39	8.41 ± 0.43	6.29 ± 0.37	7.02 ± 0.58	11.7 ± 0.96	14.6 ± 0.78	10.3 ± 0.93	4.73 ± 0.38	11.3 ± 0.83	12.3 ± 0.92	7.02 ± 0.49	11.4 ± 0.76	7.37	–	–	–	–
COc1cc2ncnc(NCc3cccc(NC(=O)Nc4cc(C)cc(C)c4)c3)c2cc1OCCCCCCN1CCC(CN2CCN(c3ccccn3)CC2)CC1 [Compound 8-2f, N-(3-(((7-methoxy-6-((6-(4-((4-(pyridin-2-yl)piperazin-1-yl)methyl)piperidin-1-yl)hexyl)oxy)quinazolin-4-yl)amino)methyl)phenyl)-N′-(3,5-dimethylphenyl)urea]	5.75 ± 0.36	6.01 ± 0.46	9.89 ± 0.53	11.6 ± 0.79	6.91 ± 0.67	6.92 ± 0.53	12 ± 0.86	12.8 ± 0.62	9.06 ± 0.42	12 ± 0.87	14.2 ± 0.84	7.67 ± 0.93	11.7 ± 0.84	8.09 ± 0.48	7.25 ± 0.38	–	–	–	–
CCc1ccccc1NC(=O)Nc1cccc(CNc2ncnc3cc(OC)c(OCCCCCCN4CCC(CN5CCN(c6ccccn6)CC5)CC4)cc23)c1 [Compound 8-2g, N-(3-(((7-methoxy-6-((6-(4-((4-(pyridin-2-yl)piperazin-1-yl)methyl)piperidin-1-yl)hexyl)oxy)quinazolin-4-yl)amino)methyl)phenyl)-N′-(2-ethylphenyl)urea]	5.37 ± 0.29	7.04 ± 0.55	9.39 ± 0.41	7.42 ± 0.35	6.04 ± 0.43	6.04 ± 0.65	11.6 ± 0.62	8.79 ± 0.98	8.56 ± 0.72	5.76 ± 0.31	8.96 ± 0.83	6.59 ± 0.64	6.38 ± 0.44	7.62 ± 0.77	5.62 ± 0.44	–	–	–	–
COc1cc2ncnc(NCc3cccc(NC(=O)Nc4ccc(F)cc4)c3)c2cc1OCCCCCCN1CCC(CN2CCN(c3ccccn3)CC2)CC1 [Compound 8-2n, N-(3-(((7-methoxy-6-((6-(4-((4-(pyridin-2-yl)piperazin-1-yl)methyl)piperidin-1-yl)hexyl)oxy)quinazolin-4-yl)amino)methyl)phenyl)-N′-(4-fluorophenyl)urea]	6.71 ± 0.48	5.82 ± 0.36	9.98 ± 0.53	14.4 ± 0.77	8.61 ± 0.73	8.39 ± 0.66	12.8 ± 0.76	18.8 ± 1.43	14.4 ± 1.55	15 ± 1.19	5.93 ± 0.61	15.4 ± 0.83	8.51 ± 0.67	12.8 ± 0.85	12.7 ± 0.92	–	–	–	–
COc1cc2ncnc(NCc3cccc(NC(=O)Nc4ccc(C)cc4C)c3)c2cc1OCCCCCCN1CCC(CN2CCN(c3ccccn3)CC2)CC1 [Compound 8-2e, N-(3-(((7-methoxy-6-((6-(4-((4-(pyridin-2-yl)piperazin-1-yl)methyl)piperidin-1-yl)hexyl)oxy)quinazolin-4-yl)amino)methyl)phenyl)-N′-(2,4-dimethylphenyl)urea]	5.19 ± 0.33	5.57 ± 0.36	10.9 ± 0.66	7.56 ± 0.38	4.31 ± 0.42	7.03 ± 0.71	6.68 ± 0.47	8.37 ± 0.66	5.46 ± 0.44	5.31 ± 0.26	7.26 ± 0.72	4.92 ± 0.29	3.68 ± 0.19	7.65 ± 0.69	5.26 ± 0.29	heightened sensitivity	heightened sensitivity	significantly better than that of 9a to 9y	3.68 ± 0.19
COc1cc2ncnc(NCc3cccc(NC(=O)Nc4ccc(C(C)C)cc4)c3)c2cc1OCCCCCCN1CCC(CN2CCN(c3ccccn3)CC2)CC1 [Compound 8-2i, N-(3-(((7-methoxy-6-((6-(4-((4-(pyridin-2-yl)piperazin-1-yl)methyl)piperidin-1-yl)hexyl)oxy)quinazolin-4-yl)amino)methyl)phenyl)-N′-(4-isopropylphenyl)urea]	6.38 ± 0.33	5.92 ± 0.47	10.5 ± 0.36	10.8 ± 0.74	4.24 ± 0.32	4.79 ± 0.46	6.32 ± 0.44	9.42 ± 0.83	8.97 ± 0.89	5.88 ± 0.35	6.69 ± 0.49	7.63 ± 0.87	3.85 ± 0.29	6.21 ± 0.63	4.97 ± 0.48	–	–	–	–
COc1cc2ncnc(NCc3cccc(NC(=O)Nc4ccccc4C)c3)c2cc1OCCCCCCN1CCC(CN2CCN(c3ccccn3)CC2)CC1 [Compound 8-2b, N-(3-(((7-methoxy-6-((6-(4-((4-(pyridin-2-yl)piperazin-1-yl)methyl)piperidin-1-yl)hexyl)oxy)quinazolin-4-yl)amino)methyl)phenyl)-N′-(2-methylphenyl)urea]	6.47 ± 0.34	6.96 ± 0.85	9.02 ± 0.41	8.74 ± 0.63	4.79 ± 0.43	6.44 ± 0.81	7.03 ± 0.37	14.5 ± 0.94	5.92 ± 0.38	6.86 ± 0.52	6.21 ± 0.55	5.47 ± 0.22	4.04 ± 0.28	7.25 ± 0.66	5.72 ± 0.41	–	–	–	–
